{"source": "patent US8586707B2", "about": "“Stapled peptides and method of synthesis” (The Research Foundation of State University of New York, priority 2008, dated 2013)", "key": {"[1]": {"experiment": "Far-UV circular dichroism, percent helicity", "format": "physicochemical", "conditions": "CD in trifluoroethanol at 25 °C, from mean residue ellipticity at 208 nm", "description": "(§1) To examine the stapling effect on peptide secondary structure, we measured the far-UV circular dichroism (CD) spectra of the stapled peptides in trifluoroethanol (TFE) at 25° C. Because the tetrazoles in the linear peptides are labile to the CD scanning light (short wavelength UV light), we prepared a photo stable control peptide, Ac-Val-Lys(Ac)-Leu-Aib-Val-Lys(Ac)-Leu-NH2 (SEQ ID NO:1) (17; Ac=acetyl; Aib=amino isobutyric acid) as a linear surrogate. […] The percent helicity of 17 was determined to be 53% on the basis of mean residue ellipticity (MRE) at 208 nm. […] To further characterize the stability derived from the stapling, we measured thermal melting point (Tm) of the most helical peptide 16 by following its ellipticity over a wide temperature range (20-85° C.), and compared it to that of the linear photo stable peptide 17 (FIG. 5 (b)).\nCircular Dichroism: CD spectra were obtained using 1-mm pathlength cuvettes on a JASCO J-715 instrument at 25° C. The instrument scan range was set at 190 to 250 nm. The scan rate was set at 50 nm/min, the response time was set at 2 sec, and the bandwidth was set at 1 nm. The spectra were the averages of two scans. For the measurement of percent helicity, peptides were dissolved in 100% trifluoroethanol (TFE); for the Tm determination, 20% TFE/H2O were used as the solvent. The percent helicity was calculated by using the following equation: […]"}, "HeLa cells": {"tested_on": "HeLa cells", "experiment": "Cellular uptake study by fluorescent microscopy", "format": "cell-based", "conditions": "100 μM peptide, 4 hours, 37 °C, DAPI filter", "description": "To assess whether the stapled peptides are capable of penetrating cell membrane, we took advantage of the intrinsic fluorescence of the pyrazoline cross-linkers and monitored the stapled peptide cellular uptake by fluorescent microscopy. […] After incubating HeLa cells with 100 μM of peptide 13 for 4 hours in a 37° C. CO2 incubator, the cells were washed twice with PBS before fixing with 4% paraformaldehyde and the subcellular distribution of peptide 13 was examined by fluorescent microscopy.\nCellular Uptake Study: HeLa cells cultured on cover slips were treated with 100 μM of peptide 13 or control peptide 18 in 2% DMSO serum-free DMEM medium for 4 hr in a 37° C., 5% CO2 incubator. In preparation for fixation, medium was aspirated and the cells were washed twice with PBS. The cover slips were treated to a freshly prepared 4% paraformaldehyde/PBS solution for 10˜15 min, washed twice with PBS, and quenched with 50 mM NH4Cl for 10 minutes. After washing with PBS twice, the cover-slip was flipped and placed on top of microscopy glass containing in situ-frame and PBS buffer to make a sealed sample chamber. The images were acquired on a Zeiss Axioimager motorized fluorescence microscope. DAPI filter (ex 365 nm, em 445±25 nm) was used in acquiring fluorescence images. All image acquisitions and processing were performed under identical conditions."}, "[2]": {"experiment": "Thermal melting point by CD ellipticity over 20-85 °C", "format": "physicochemical", "conditions": "for melting temperature (Tm): 100 μM peptide in 20% TFE/H2O, 20-85 °C", "description": "as §1\nCircular Dichroism: CD spectra were obtained using 1-mm pathlength cuvettes on a JASCO J-715 instrument at 25° C. The instrument scan range was set at 190 to 250 nm. The scan rate was set at 50 nm/min, the response time was set at 2 sec, and the bandwidth was set at 1 nm. The spectra were the averages of two scans. For the measurement of percent helicity, peptides were dissolved in 100% trifluoroethanol (TFE); for the Tm determination, 20% TFE/H2O were used as the solvent. The percent helicity was calculated by using the following equation:\n[formula] The melting temperature (Tm) was determined by following a reported procedure. Briefly, a sample of 100 μM peptide in 20% TFE/H2O in an 1-mm pathlength cuvette was scanned at various temperatures from 20° C. to 85° C. (5-degree intervals) with an equilibration time of 3 min and a heating rate of 60° C./hr. The θ222 MRE data was normalized by setting the maximum θ222 MRE to 100% and the minimum θ222 MRE to 0."}, "[3]": {"conditions": "the molecule shown is the open-chain precursor, other bond, hv 302 nm (tetrazole-alkene photocycloaddition)"}, "[4]": {"conditions": "the molecule shown is the open-chain precursor, other bond, 28-membered ring, hv 302 nm, 10 min, 0.15 mM"}, "[5]": {"conditions": "28-membered ring, MeCN, 0.15 mM"}}, "note": "Where two headings read alike, the source gives them in different places. *1 amine or outer side, *2 acyl side, *3 side chain or, on linkers, in order; H or OH if unused. Where a SMILES comes first, the peptide text is derived from it. Bridges are numbered along the chain shown (N, C = ends). [ ]: non-standard residue; d: D form. The star is where a group is joined. X1 = CN(C)c1ccc(N2N=C(C(=O)[*:2])CC2(C)C(=O)[*:1])cc1; X5 = COc1ccc(N2N=C(C(=O)[*:2])CC2(C)C(=O)[*:1])cc1; X3 = COc1ccc(N2N=C(C(=O)[*:2])CC2C(=O)[*:1])cc1; X4 = CC1(C(=O)[*:1])CC(C(=O)[*:2])=NN1c1ccccc1; X2 = COc1ccc(N2N=C(C(=O)*)CC2C(N)=O)cc1; Aib = CC(C)(N)C(=O)O", "data": [{"compound": "CC(=O)N[C@H](C(=O)N[C@H]1CCCCNC(=O)C2(C)CC(=NN2c2ccccc2)C(=O)NCCCC[C@@H](C(=O)N[C@@H](CC(C)C)C(N)=O)NC(=O)[C@H](C(C)C)NC(=O)C(C)(C)NC(=O)[C@H](CC(C)C)NC1=O)C(C)C", "note": "(some centres unmarked) [Peptide 11] (Ac-VKL[Aib]VKL-NH2; linker 2-6 via X4)", "values": [{"measurement": "percent helicity", "setting": "[1]", "value": 51, "unit": "%"}]}, {"compound": "COc1ccc(N2N=C3CC2C(=O)NCCCC[C@H](NC(=O)[C@@H](NC(C)=O)C(C)C)C(=O)N[C@@H](CC(C)C)C(=O)NC(C)(C)C(=O)N[C@@H](C(C)C)C(=O)N[C@H](C(=O)N[C@@H](CC(C)C)C(N)=O)CCCCNC3=O)cc1", "note": "(some centres unmarked) [Peptide 13] (Ac-VKL[Aib]VKL-NH2; linker 2-6 via X3)", "values": [{"measurement": "cellular uptake (intracellular fluorescence)", "setting": "HeLa cells", "value": "punctuated fluorescence was observed in discrete cytoplasmic regions within HeLa cells"}]}, {"compound": "COc1ccc(N2N=C3CC2(C)C(=O)NCCCC[C@H](NC(=O)[C@@H](NC(C)=O)C(C)C)C(=O)N[C@@H](CC(C)C)C(=O)NC(C)(C)C(=O)N[C@@H](C(C)C)C(=O)N[C@H](C(=O)N[C@@H](CC(C)C)C(N)=O)CCCCNC3=O)cc1", "note": "(some centres unmarked) [Peptide 14] (Ac-VKL[Aib]VKL-NH2; linker 2-6 via X5)", "values": [{"measurement": "percent helicity", "setting": "[1]", "value": 51, "unit": "%"}]}, {"compound": "CC(=O)N[C@H](C(=O)N[C@H]1CCCCNC(=O)C2(C)CC(=NN2c2ccc(N(C)C)cc2)C(=O)NCCCC[C@@H](C(=O)N[C@@H](CC(C)C)C(N)=O)NC(=O)[C@H](C(C)C)NC(=O)C(C)(C)NC(=O)[C@H](CC(C)C)NC1=O)C(C)C", "note": "(some centres unmarked) [Peptide 16] (Ac-VKL[Aib]VKL-NH2; linker 2-6 via X1)", "values": [{"measurement": "percent helicity", "setting": "[1]", "value": 64, "unit": "%"}, {"measurement": "melting temperature (Tm)", "setting": "[2]", "value": 63, "unit": "°C"}, {"measurement": "increase in Tm versus linear peptide 17", "setting": "[2]; stapled 16 vs linear 17", "value": 15, "unit": "°C"}]}, {"compound": "CC(=O)NCCCC[C@H](NC(=O)[C@@H](NC(C)=O)C(C)C)C(=O)N[C@@H](CC(C)C)C(=O)NC(C)(C)C(=O)N[C@H](C(=O)N[C@@H](CCCCNC(C)=O)C(=O)N[C@@H](CC(C)C)C(N)=O)C(C)C", "note": "[Peptide 17, Ac-Val-Lys(Ac)-Leu-Aib-Val-Lys(Ac)-Leu-NH2, reference compound] (Ac-VK(Ac)L[Aib]VK(Ac)L-NH2)", "values": [{"measurement": "percent helicity", "setting": "[1]", "value": 53, "unit": "%"}, {"measurement": "melting temperature (Tm)", "setting": "[2]", "value": 48, "unit": "°C"}]}, {"compound": "COc1ccc(N2N=C(C(=O)NCCCC[C@H](NC(=O)[C@@H](NC(=O)C(C)(C)NC(=O)[C@H](CC(C)C)NC(=O)[C@H](CCCCNC(C)=O)NC(=O)[C@@H](NC(C)=O)C(C)C)C(C)C)C(=O)N[C@@H](CC(C)C)C(N)=O)CC2C(N)=O)cc1", "note": "(stereo partly drawn) [Peptide 18, Ac-Val-Lys(Pyr)-Leu-Aib-Val-Lys(Ac)-Leu-NH2, reference compound] (Ac-VK(Ac)L[Aib]VK(X2)L-NH2)", "values": [{"measurement": "cellular uptake (intracellular fluorescence)", "setting": "HeLa cells", "value": "did not yield cellular fluorescent pattern"}]}, {"compound": "Ac-Leu-Thr-Phe-Lys(methacryloyl)-His-Tyr-Trp-Ala-Gln-Leu-Lys(N-(4-methoxy)phenyl-tetrazole)-Ser-NH2", "values": [{"measurement": "ring closure, yield after HPLC", "setting": "[3]", "value": 74, "unit": "%"}]}, {"compound": "Ac-Val-Lys(acryloyl)-Leu-Aib-Val-Lys(2-(4-dimethylaminophenyl)-2H-tetrazole-5-carbonyl)-Leu-NH2?", "values": [{"measurement": "ring closure, yield after HPLC", "setting": "[3]; [5]", "value": 64, "unit": "%"}]}, {"compound": "Ac-Val-Lys(acryloyl)-Leu-Aib-Val-Lys(2-(4-methoxyphenyl)-2H-tetrazole-5-carbonyl)-Leu-NH2?", "values": [{"measurement": "ring closure, yield after HPLC", "setting": "[3]; [5]", "value": 64, "unit": "%"}]}, {"compound": "Ac-Val-Lys(methacryloyl)-Leu-Aib-Val-Lys(2-(4-dimethylaminophenyl)-2H-tetrazole-5-carbonyl)-Leu-NH2?", "values": [{"measurement": "ring closure, yield after HPLC", "setting": "[3]; [5]", "value": 94, "unit": "%"}, {"measurement": "ring closure, conversion", "setting": "[4]; DCM", "value": 43, "unit": "%"}, {"measurement": "ring closure, conversion", "setting": "[4]; EtOAc", "value": 86, "unit": "%"}, {"measurement": "ring closure, conversion", "setting": "[4]; EtOH", "value": 92, "unit": "%"}, {"measurement": "ring closure, conversion", "setting": "[4]; MeCN", "value": 87, "unit": "%"}, {"measurement": "ring closure, conversion", "setting": "[4]; iPrOH", "value": 88, "unit": "%"}]}, {"compound": "Ac-Val-Lys(methacryloyl)-Leu-Aib-Val-Lys(2-(4-methoxyphenyl)-2H-tetrazole-5-carbonyl)-Leu-NH2?", "values": [{"measurement": "ring closure, yield after HPLC", "setting": "[3]; [5]", "value": 53, "unit": "%"}]}, {"compound": "Ac-Val-Lys(methacryloyl)-Leu-Aib-Val-Lys(2-phenyl-2H-tetrazole-5-carbonyl)-Leu-NH2?", "values": [{"measurement": "ring closure, yield after HPLC", "setting": "[3]; [5]", "value": 41, "unit": "%"}]}, {"compound": "Ac-Val-Lys(methacryloyl)-Leu-Aib-Val-Lys(4-(2-phenyl-2H-tetrazol-5-yl)benzoyl)-Leu-NH2?", "values": [{"measurement": "ring closure, yield after HPLC", "setting": "[3]; 32-membered ring, MeCN, 0.15 mM", "value": 38, "unit": "%"}]}, {"compound": "Ac-Val-Orn(methacryloyl)-Leu-Aib-Val-Orn(2-phenyl-2H-tetrazole-5-carbonyl)-Leu-NH2?", "values": [{"measurement": "ring closure, yield after HPLC", "setting": "[3]; 26-membered ring, MeCN, 0.15 mM", "value": 15, "unit": "%"}]}, {"compound": "Ac-Val-Orn(methacryloyl)-Leu-Aib-Val-Orn(4-(2-phenyl-2H-tetrazol-5-yl)benzoyl)-Leu-NH2?", "values": [{"measurement": "ring closure, yield after HPLC", "setting": "[3]; 30-membered ring, MeCN, 0.15 mM", "value": 15, "unit": "%"}]}]}
